# Measurements from PMC8954816, “Quantitative Analysis of Daporinad (FK866) and Its In Vitro and In Vivo Metabolite Identification Using Liquid Chromatography-Quadrupole-Time-of-Flight Mass Spectrometry” (Molecules, 2022).
# Where two headings read alike, the source gives them in different places.
# Assays:
# [1] = Preliminary stability tests for Daporinad in mouse plasma; assay type: in vitro ADME; settings: 14 days, −20 °C, n = 3
# [2] = Intravenous pharmacokinetic study of Daporinad in mice (plasma, LC-qTOF-MS, NCA); assay type: in vivo, mouse; settings: for AUC(0-t) / Cmax / clearance / half-life / Vd: male, ICR; for AUC(0-t) / Cmax / clearance / half-life: n = 3; for Vd: n = 3, read-out: Vss
# Protocol: The developed LC-qTOF-MS method was successfully applied to obtain the PK parameters of Daporinad in mouse plasma following IV administration at the doses of 5, 10 and 30 mg/kg. The concentrations of most PK samples were within the qualified calibration curve except some PK samples at early time point samples. Therefore, early time point PK samples were diluted appropriately with blank mouse plasma to ensure that every sample concentration was within the calibration curve range. The PK parameters were calculated with the non-compartmental analysis (NCA) using WinNonlin (version 8.0.0) and the results are summarized in Table 4.
# An aliquot of 4 µL of STD or QC working solutions were spiked into 20 µL of blank mouse plasma, and 4 µL of make-up DMSO was spiked into 20 µL of the mouse PK sample to make it the same matrix condition as the STD and QC sample. Then, 100 µL of ISTD solution was added to STD, QC and the study sample. Then, the samples were vortexed for about 1 min and centrifuged at 10,000× g rpm for 5 min. After centrifugation, 75 µL of supernatant was taken and mixed with 75 µL of DW. After that, the aliquot was transferred to an LC vial for the LC-qTOF-MS analysis.
# Male ICR mice (30 ± 3 g) were purchased from the Samtako biokorea co. (Pocheon, Gyeonggi, Korea) and housed in groups of 6~8 per cage and given standard rodent chow. The animals were fasted overnight with free access to water for at least 12 h before administration. Mice were distributed into three different dosing groups (n = 3 for each dosing group; 5, 10 and 30 mg/kg). The blood sampling time points were 2, 10, 30, 60, 120, 240 and 420 min after administration. The sampling blood samples were centrifuged at 12,000× g rpm for 5 min and the plasma was transferred to another tube and then stored at −20 °C until further analysis. All experiment performed on the mouse were approved by abiding the animal care protocol (no. CNU-01104) from Chungnam National University. The procedures were abided by the guidelines established by the Association for Assessment and Accreditation of Laboratory Animal Care International (AAALAC International).
# Data acquisition and LC-qTOF-MS operation was conducted using Analyst® TF Version 1.6 (Sciex, Foster City, CA, USA). MultiQuant® Version 2.1.1 (Sciex, Foster City, CA, USA) was used for the peak integration for Daporinad quantification. PeakView® Version 2.2 (Sciex, Foster City, CA, USA) and MetabolitePilot™ Version 2.0.2 (Sciex, Foster City, CA, USA) were used for the structural elucidation of Daporinad metabolites. The descriptive statistics for the qualification studies were calculated with Excel 2015 (Microsoft). Pharmacokinetic parameters were calculated in a non-compartmental analysis using WinNonlin® version 8.0.0 (Certara, Princeton, NJ, USA).
# [3] = Preliminary stability tests for Daporinad in mouse plasma; assay type: in vitro ADME; settings: for Freeze–thaw stability, mean accuracy: 3 cycles; for Freeze–thaw stability, mean accuracy / Short-term stability, mean accuracy: n = 3; for Short-term stability, mean accuracy: 4 h
# Protocol: Daporinad was stable in mouse plasma for […] three cycles of freeze–thawing and also stable during at least 2 weeks at −80 °C storage condition.
# Three levels of QC were used for the short-term, freeze–thaw and long-term stability assessments. The short-term stability assessment was carried out at RT for 4 h, and the long-term stability samples were kept frozen at −80 °C for 2 weeks. The freeze–thaw stability was evaluated over three cycles of freezing (−80 °C) and thawing (RT). The stability test results were evaluated by confirming that the mean accuracy (%) of the nominal value which should be within ±25% acceptance criteria.
# [4] = mouse plasma, dose range 10 to 30 mg/kg
smiles,measurement,setting,value
O=C(/C=C/c1cccnc1)NCCCCC1CCN(C(=O)c2ccccc2)CC1 [Daporinad],"Long-term stability, mean accuracy",[1]; High QC (1820 ng/mL),91.4%
same,"Long-term stability, mean accuracy",[1]; Low QC (15.0 ng/mL),111%
same,"Long-term stability, mean accuracy",[1]; Medium QC (165 ng/mL),84.5%
same,AUC(0-t),"[2]; mouse plasma, 5 mg/kg",2860 ng·h/mL
same,Cmax,"[2]; mouse plasma, 5 mg/kg",5480 ± 427 ng/mL
same,clearance,"[2]; mouse plasma, 5 mg/kg",29.3 ± 3.7 mL/min/kg
same,half-life,"[2]; mouse plasma, 5 mg/kg",52.9 ± 7.3 min
same,Vd,"[2]; mouse plasma, 5 mg/kg",0.897 ± 0.199 L/kg
same,AUC(0-t),"[2]; mouse plasma, 10 mg/kg",5950 ng·h/mL
same,Cmax,"[2]; mouse plasma, 10 mg/kg",14900 ng/mL
same,clearance,"[2]; mouse plasma, 10 mg/kg",28.1 ± 2.78 mL/min/kg
same,half-life,"[2]; mouse plasma, 10 mg/kg",50.5 ± 4.88 min
same,Vd,"[2]; mouse plasma, 10 mg/kg",0.647 ± 0.0915 L/kg
same,AUC(0-t),"[2]; mouse plasma, 30 mg/kg",29400 ng·h/mL
same,Cmax,"[2]; mouse plasma, 30 mg/kg",48100 ng/mL
same,clearance,"[2]; mouse plasma, 30 mg/kg",17.9 ± 5.11 mL/min/kg
same,half-life,"[2]; mouse plasma, 30 mg/kg",40.8 ± 0.95 min
same,Vd,"[2]; mouse plasma, 30 mg/kg",0.536 ± 0.11 L/kg
same,Dose proportionality of Cmax and AUC,"[2]; mouse plasma, dose range 5 to 10 mg/kg",dose proportional
same,Dose proportionality of AUC,[2]; [4],supra-proportional
same,Dose proportionality of Cmax,[2]; [4],dose-proportional
same,Clearance classification,"[2]; mouse, 5 to 30 mg/kg",low to moderate clearance
same,"Freeze–thaw stability, mean accuracy","[3]; mouse plasma, −80 °C, High QC (1820 ng/mL)",116%
same,"Freeze–thaw stability, mean accuracy","[3]; mouse plasma, −80 °C, Low QC (15.0 ng/mL)",105%
same,"Freeze–thaw stability, mean accuracy","[3]; mouse plasma, −80 °C, Medium QC (165 ng/mL)",117%
same,"Short-term stability, mean accuracy","[3]; mouse plasma, RT, High QC (1820 ng/mL)",104%
same,"Short-term stability, mean accuracy","[3]; mouse plasma, RT, Low QC (15.0 ng/mL)",103%
same,"Short-term stability, mean accuracy","[3]; mouse plasma, RT, Medium QC (165 ng/mL)",102%
same,Time stable in mouse plasma at room temperature,"[3]; mouse plasma, RT",at least 4 h
same,Time stable in mouse plasma at storage condition,"[3]; mouse plasma, −80 °C storage",at least 2 weeks
same,Freeze–thaw stability in mouse plasma,"[3]; −80 °C, three cycles of freeze–thawing",stable
